Tested on: Hyperpigmented melanocytes derived from normal neonatal prepuce
Assay: Effect on melanin synthesis in cultured hyperpigmented melanocytes (melanin content read at 490 nm)
Format: cell-based
Procedure: 3 solutions of methyl ester of triacetyl leucodopachrome were prepared, respectively at concentrations of 0.0025%, 0.00025% and 0.000025% by weight in DMSO.
The effect of the methyl ester of (S)-triacetyl leucodopachrome on melanin synthesis was evaluated according to the following procedure.
Hyperpigmented melanocytes derived from normal neonatal prepuce of separate donors were bought from the company Cascade Biologics (Portland, Oreg., United States). The cells were seeded in 6-well plates and cultured in a growth medium of the melanocytes (medium topped up with bovine pituitary extract, fetal bovine serum, bovine insulin, transferrin, conventional fibroblast growth factor, hydrocortisone, heparin and phorbol 12-myristate 13-acetate).
In a second stage, the cells were incubated with a growth medium (MGM, Clonetics) containing the active products, in three copies, for 5 days. The medium was withdrawn and the cells washed with PBS (Gibco/Invitrogen). The cells were lyzed and the melanin solubilized in NaOH.
The supernatant was centrifuged. After centrifugation, the clear lysate was transferred to a new plate and the melanin content was measured on an ELISA reader at 490 nm. The pellets were visualized on an Alphalnnotech imager.

With COC(=O)[C@@H]1Cc2cc(OC(C)=O)c(OC(C)=O)cc2N1C(C)=O [methyl ester of (S)-triacetyl leucodopachrome] the “inhibition of the melanin synthesis (in words)” value (0.000025% to 0.0025% solutions) was “increases with the concentration”, the inhibition at 2.5e-05 % strength (Melanocyte, 120 h, 0.000025% by weight solution in DMSO, 5 days incubation, melanin at 490 nm) was 5.49% and the inhibition at 0.00025 % strength (Melanocyte, 120 h, 0.00025% by weight solution in DMSO, 5 days incubation, melanin at 490 nm) was 6.7%. The inhibition at 0.0025 % strength (Melanocyte, 120 h, 0.0025% by weight solution in DMSO, 5 days incubation, melanin at 490 nm) was 32.8%.
